Assay results taken from patent publication US9505762B2, “Purine derivatives as CB2 receptor agonists” (Hoffmann-La Roche Inc., priority 2013, dated 2016).

What was measured:
human CB1 receptors = human CB1 receptors (Homo sapiens (Human), UniProt P21554); assay: functional cAMP assay, CB1; assay type: cell-based; settings: CHO cells expressing human CB1
human CB2 receptors = human CB2 receptors (Homo sapiens (Human), UniProt P34972); assay: functional cAMP assay, CB2; assay type: cell-based; settings: CHO cells expressing human CB2
Chain of human CB2 receptors (P34972 whole entry): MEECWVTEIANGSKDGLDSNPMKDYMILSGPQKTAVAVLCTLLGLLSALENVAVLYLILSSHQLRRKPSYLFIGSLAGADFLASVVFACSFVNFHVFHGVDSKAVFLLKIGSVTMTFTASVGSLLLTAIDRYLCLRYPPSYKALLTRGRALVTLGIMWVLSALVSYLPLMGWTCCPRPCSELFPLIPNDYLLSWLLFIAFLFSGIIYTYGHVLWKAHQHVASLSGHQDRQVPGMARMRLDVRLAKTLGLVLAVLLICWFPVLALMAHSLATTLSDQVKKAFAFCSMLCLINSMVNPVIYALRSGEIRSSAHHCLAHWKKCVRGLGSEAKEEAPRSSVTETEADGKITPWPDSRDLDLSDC

Chain of human CB1 receptors (P21554 whole entry): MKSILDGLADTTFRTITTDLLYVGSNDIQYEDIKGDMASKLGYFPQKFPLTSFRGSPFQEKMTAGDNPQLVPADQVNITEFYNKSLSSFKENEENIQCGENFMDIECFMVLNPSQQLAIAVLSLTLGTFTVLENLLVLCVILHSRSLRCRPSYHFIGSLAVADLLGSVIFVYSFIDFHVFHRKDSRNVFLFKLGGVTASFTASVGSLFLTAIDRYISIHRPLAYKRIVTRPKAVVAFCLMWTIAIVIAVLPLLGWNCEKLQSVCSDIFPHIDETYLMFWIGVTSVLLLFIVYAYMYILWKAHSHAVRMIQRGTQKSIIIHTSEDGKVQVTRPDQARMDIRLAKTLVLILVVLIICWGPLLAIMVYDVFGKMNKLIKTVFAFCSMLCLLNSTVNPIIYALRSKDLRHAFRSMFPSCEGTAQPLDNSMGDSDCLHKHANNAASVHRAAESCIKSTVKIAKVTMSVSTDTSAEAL

For `CC(=O)N[C@H]1CCN(c2nc(C(C)(C)C)nc3c2ncn3Cc2ncccc2Cl)C1` [Example 54, N—[(S)-1-[2-tert-butyl-9-[(3-chloropyridin-2-yl)methyl]purin-6-yl]pyrrolidin-3-yl]acetamide], the EC50 (human CB1 receptors) was > 10 µM and the EC50 (human CB2 receptors) was 0.388 µM.

With `Cc1noc(Cn2cnc3c(N4CCC(F)(F)C4)nc(NC(C)(C)C)nc32)n1` [Example 115, N-tert-butyl-6-(3,3-difluoropyrrolidin-1-yl)-9-[(3-methyl-1,2,4-oxadiazol-5-yl)methyl]purin-2-amine] the EC50 (human CB1 receptors) was > 10 µM and the EC50 (human CB2 receptors) was 0.195 µM.

`Cn1nnnc1Cn1cnc2c(N3CCC(F)(F)C3)nc(NC(C)(C)C)nc21` [Example 113, N-tert-butyl-6-(3,3-difluoropyrrolidin-1-yl)-9-[(1-methyltetrazol-5-yl)methyl]purin-2-amine] was tested, and the EC50 (human CB1 receptors) was > 10 µM and the EC50 (human CB2 receptors) was 0.249 µM.

In the case of `CC(C)(C)c1nc(N2CCC3(C2)CC3(F)F)c2ncn(Cc3ncccc3Cl)c2n1` (stereo not drawn) [Example 168, 2-tert-butyl-9-[(3-chloropyridin-2-yl)methyl]-6-(2,2-difluoro-5-azaspiro[2.4]heptan-5-yl)purine], the EC50 (human CB1 receptors) is reported as > 10 µM and the EC50 (human CB2 receptors) is reported as 0.0324 µM.

With `CC(C)(C)c1nc(N2CCC(F)(F)C2)c2ncn(Cc3ccccc3S(C)(=O)=O)c2n1` [Example 18, 2-tert-butyl-6-(3,3-difluoropyrrolidin-1-yl)-9-[(2-methylsulfonylphenyl)methyl]purine] the EC50 (human CB1 receptors) was > 10 µM and the EC50 (human CB2 receptors) was 0.0033 µM.

In the case of `CC(C)(C)Nc1nc(N2CC[C@H](O)C2)c2ncn(CCC(F)(F)F)c2n1` [Example 130, (3S)-1-[2-(tert-butylamino)-9-(3,3,3-trifluoropropyl)purin-6-yl]pyrrolidin-3-ol], the EC50 (human CB1 receptors) is reported as > 10 µM and the EC50 (human CB2 receptors) is reported as 0.215 µM.

`CC(C)(C)c1nc(N2CC[C@H](O)C2)c2ncn(Cc3n[nH]cc3C(F)(F)F)c2n1` [Example 100, (3S)-1-[2-tert-butyl-9-[[4-(trifluoromethyl)-1H-pyrazol-3-yl]methyl]purin-6-yl]pyrrolidin-3-ol] was tested, and the EC50 (human CB1 receptors) was > 10 µM and the EC50 (human CB2 receptors) was 0.0066 µM.

In the case of `CC1(O)CCN(c2nc(C(C)(C)C)nc3c2ncn3Cc2c[nH]nc2C(F)(F)F)C1` (stereo not drawn) [Example 84, 1-[2-tert-butyl-9-[[3-(trifluoromethyl)-1H-pyrazol-4-yl]methyl]purin-6-yl]-3-methylpyrrolidin-3-ol], the EC50 (human CB1 receptors) is reported as > 10 µM and the EC50 (human CB2 receptors) is reported as 0.0793 µM.

`CC(C)(C)c1nc(N2CC[C@H](O)C2)c2ncn(Cc3cccc(Cl)c3)c2n1` [Example 87, (3S)-1-[2-tert-butyl-9-[(3-chlorophenyl)methyl]purin-6-yl]pyrrolidin-3-ol] was tested, and the EC50 (human CB1 receptors) was > 10 µM and the EC50 (human CB2 receptors) was 0.0021 µM.

For `Cn1nnnc1Cn1cnc2c(N3CCC(F)(F)C3)nc(OCC(C)(C)C)nc21` [Example 129, 6-(3,3-difluoropyrrolidin-1-yl)-2-(2,2-dimethylpropoxy)-9-[(1-methyltetrazol-5-yl)methyl]purine], the EC50 (human CB1 receptors) was > 10 µM and the EC50 (human CB2 receptors) was 0.0956 µM.

In the case of `CC(C)(C)c1nc(N2CCC3(COC3)C2)c2ncn(Cc3ccccc3C(F)(F)F)c2n1` [Example 59, 7-[2-tert-butyl-9-[[2-(trifluoromethyl)phenyl]methyl]purin-6-yl]-2-oxa-7-azaspiro[3.4]octane], the EC50 (human CB1 receptors) is reported as > 10 µM and the EC50 (human CB2 receptors) is reported as 0.0167 µM.

In the case of `Cn1nnnc1Cn1cnc2c(N3CC[C@H](O)C3)nc(C(C)(C)C)nc21` [Example 95, (3S)-1-[2-tert-butyl-9-[(1-methyltetrazol-5-yl)methyl]purin-6-yl]pyrrolidin-3-ol], the EC50 (human CB1 receptors) is reported as > 10 µM and the EC50 (human CB2 receptors) is reported as 0.363 µM.

`CC(C)(C)c1nc(N2CCC(F)(F)C2)c2ncn(CC(=O)c3ccccn3)c2n1` [Example 24, 2-[2-tert-butyl-6-(3,3-difluoropyrrolidin-1-yl)purin-9-yl]-1-pyridin-2-ylethanone] was tested, and the EC50 (human CB1 receptors) was > 10 µM and the EC50 (human CB2 receptors) was 0.0692 µM.

With `CC(C)(C)c1nc(N2CC[C@H](O)C2)c2ncn(Cc3c[nH]nc3C(F)(F)F)c2n1` [Example 98, (3S)-1-[2-tert-butyl-9-[[3-(trifluoromethyl)-1H-pyrazol-4-yl]methyl]purin-6-yl]pyrrolidin-3-ol] the EC50 (human CB1 receptors) was > 10 µM and the EC50 (human CB2 receptors) was 0.0223 µM.

`CC(=O)N[C@H]1CCN(c2nc(C(C)(C)C)nc3c2ncn3Cc2ccc(Cl)cc2)C1` [Example 50, N—[(S)-1-[2-tert-butyl-9-[(4-chlorophenyl)methyl]purin-6-yl]pyrrolidin-3-yl]acetamide] was tested, and the EC50 (human CB1 receptors) was > 10 µM and the EC50 (human CB2 receptors) was 0.534 µM.
